The values below come from patent US8871799B2, “Iminochromene anti-viral compounds” (priority 2010, dated 2014).

One test concerns HCV. In words: HCV RNA release by Huh7 cells. Type of test: cell-based, Hepatitis C virus. Conditions: control level 100% in the absence of drug.
The test system of a further test is HCV2a virus. Kind of test: HCV IF antiviral assay (HCV inhibition assay). It is filed as cell-based, Hepatitis C virus. The conditions noted are these: for Number HCV infected cells: Huh7 cells, 80 infected cells at 0 μM.
For test [1], the system named is Murine Encephalomyocarditis virus (EMCV). Kind of test: EMCV antiviral assay (MTS cell viability). Conditions: Huh7 cells, 250 pfu EMCV, negative controls ~0.7-0.75.

Turning to `COc1ccc(/N=c2\oc3ccc(Cl)cc3cc2C(N)=S)cc1` [KIN700], in the test with HCV (KIN700 at 10 μM), the “Level of HCV RNA in supernatant” value is listed as “less than 10%”. Further, the “Change in number of HCV-infected cells with increasing concentration” value with HCV2a virus (0, 5 μM, 10 μM and 50 μM) was “dose-dependent decrease”. Moreover, the “Number HCV infected cells” value was 25 in the test on HCV2a virus (KIN700 added 5 μM), 13 in the test with HCV2a virus (KIN700 added 10 μM) and 13 in the test with HCV2a virus (KIN700 added 50 μM). In addition, the Cell viability post-infection in test [1] (5 μM) is recorded as about 0.8; in test [1] (10 μM), about 1.5; in test [1] (20 μM), about 1.7.
Take interferon [reference compound]: the “Level of HCV RNA in supernatant” value in the test on HCV (Interferon sample) is reported as “less than 5%”. Further, the “HCV infection with positive control treatment” value in the test on HCV2a virus (positive control, representative experiments) is listed as “completely blocks HCV infection”.
